Target: Epidermal growth factor receptor (Homo sapiens, UniProt P00533)
Assay: Inhibition Assay

Sequence of Epidermal growth factor receptor (P00533 whole entry): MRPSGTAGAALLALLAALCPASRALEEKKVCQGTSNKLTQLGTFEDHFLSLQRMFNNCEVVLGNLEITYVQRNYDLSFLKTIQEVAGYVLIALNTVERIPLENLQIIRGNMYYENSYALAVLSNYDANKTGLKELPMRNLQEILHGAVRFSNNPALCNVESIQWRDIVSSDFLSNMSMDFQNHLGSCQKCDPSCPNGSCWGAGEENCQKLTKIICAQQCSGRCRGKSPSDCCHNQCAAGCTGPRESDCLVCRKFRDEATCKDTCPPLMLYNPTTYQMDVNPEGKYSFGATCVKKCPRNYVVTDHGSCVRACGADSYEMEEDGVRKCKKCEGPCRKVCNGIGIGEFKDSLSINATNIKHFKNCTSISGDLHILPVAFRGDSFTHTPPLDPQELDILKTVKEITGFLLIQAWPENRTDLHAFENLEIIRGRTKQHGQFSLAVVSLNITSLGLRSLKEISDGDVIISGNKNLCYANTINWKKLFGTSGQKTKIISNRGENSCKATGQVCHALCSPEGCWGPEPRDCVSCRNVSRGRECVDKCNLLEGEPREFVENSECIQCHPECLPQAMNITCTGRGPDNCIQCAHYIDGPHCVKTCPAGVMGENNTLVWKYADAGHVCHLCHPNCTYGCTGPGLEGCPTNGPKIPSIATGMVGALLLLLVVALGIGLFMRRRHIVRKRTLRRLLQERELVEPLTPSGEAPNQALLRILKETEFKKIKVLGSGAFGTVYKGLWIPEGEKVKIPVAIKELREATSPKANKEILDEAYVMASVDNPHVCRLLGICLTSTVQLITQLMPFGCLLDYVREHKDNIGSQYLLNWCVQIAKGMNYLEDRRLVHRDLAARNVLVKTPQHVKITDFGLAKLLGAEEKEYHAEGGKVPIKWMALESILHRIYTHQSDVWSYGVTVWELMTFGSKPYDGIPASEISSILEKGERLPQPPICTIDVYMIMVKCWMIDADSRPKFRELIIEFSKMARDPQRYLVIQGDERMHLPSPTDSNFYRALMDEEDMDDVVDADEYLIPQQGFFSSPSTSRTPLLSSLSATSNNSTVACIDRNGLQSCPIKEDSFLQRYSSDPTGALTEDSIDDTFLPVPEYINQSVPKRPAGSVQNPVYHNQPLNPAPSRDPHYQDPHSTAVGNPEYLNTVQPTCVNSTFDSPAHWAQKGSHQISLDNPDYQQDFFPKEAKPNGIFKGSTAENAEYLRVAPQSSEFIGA

| IC50 [nM] | Compound |
| --- | --- |
| 578 | C=CC(=O)Nc1cc(Nc2nc(-c3cnn(C)c3)c3cc[nH]c3n2)c(OC)cc1OCCN(C)C [US9890168, Compound 10] |
| > 1000 | C=CC(=O)Nc1cc(Nc2nc(-c3cnn(C)c3)c3c(C)c[nH]c3n2)c(OC)cc1N1CCC(N(C)C)CC1 [US9890168, Compound 14] |

From BindingDB's records for patent US9890168 (Shanghai Haiyan Pharmaceutical Technology, 2018)
